{"source": "patent US10076525B2", "about": "“Sex steroid precursors alone or in combination with selective estrogen receptor modulators for the prevention and treatment of dyspareunia in postmenopausal women” (ENDORECHERCHE, INC., priority 2004, dated 2018)", "key": {"ERα": {"tested_on": "ERα", "assay": "Immunohistochemistry of ERα in fifth vaginal segment", "assay_type": "in vivo, rat", "settings": "OVX rats, 36 wk", "protocol": "(§1) Animals from the intact and OVX control groups received the vehicle alone.\n(§2) Immunostaining was performed using Zymed SP kits (San Francisco, Calif.). Paraffin sections (4 μm) were deparaffinized in toluene and rehydrated through ethanol. Endogenous peroxidase activity was eliminated by preincubation with 3% H2O2 in methanol for 30 min. A microwave retrieval technique using citrate buffer (Tacha and Chen, 1994) was applied. After cooling the slides, non-specific binding was blocked using 10% goat serum for 20 min. Sections were then incubated for 1.5 h at room temperature with ERα (AB-1, Calbiochem, California), AR (N-20, Santa Cruz Biotechnology, California) or PR (Ab-4, NeoMarkers, California) antibodies, at 1:200, 1:250 and 1:250 respectively. After washing in PBS buffer, sections were incubated with biotinylated anti-rabbit secondary antibody for 10 min and thereafter with streptavidin-peroxidase for another 10 min. Diaminobenzidine was used as the chromogen to visualize the biotin/streptavidin-peroxidase complex, under microscope monitoring. Counterstaining was performed using #2 Gill's hematoxylin for 30 sec. For controls, immunoabsorption with an excess of the peptide used to raise the antibody, or substitution with non immune rabbit IgG, was performed."}, "[1]": {"assay": "Body weight after 14-day intravaginal DHEA suppository", "assay_type": "in vivo, rat", "settings": "OVX rats, 14 days", "from_the_text": "(§3) The animals were housed individually and were allowed free access to water and rodent food (Lab Diet 5002, Ralston Purina, St-Louis, Mo.).\n(§4) The insertion into the vagina of one suppository began on day 5 of the study and was continued once daily until day 18 of the study, for a total of 14 days of treatment. The suppository was gently placed in the vaginal opening and then delicately pushed about 2-3 mm inside the vagina with the help of a small, smooth glass stick, disinfected in 70% alcohol and dried between each animal."}, "PR": {"tested_on": "PR", "assay": "Immunohistochemistry of PR in fifth vaginal segment", "assay_type": "in vivo, rat", "settings": "OVX rats, 36 wk", "protocol": "as §1, §2"}, "rat vagina [2]": {"tested_on": "rat vagina", "assay": "Histological evaluation of epithelium, lamina propria and muscularis in the seven rat vaginal segments", "assay_type": "in vivo", "settings": "OVX rats, 36 wk; for epithelium morphology: Acolbifene 2.5, Premarin 0.5 mg/kg oral, DHEA 80 mg/kg dorsal skin", "from_the_text": "as §3, §1\n(§5) Twenty-four hours after the last dosing, overnight fasted animals were sacrificed under isoflurane anesthesia by exsanguination at the abdominal aorta (9 animals per group) or by intracardiac perfusion with 10% neutral buffered formalin (5 animals per group). Vaginae from non-perfused animals were collected and weighed, while the vaginae collected from perfused animals were marked with black ink on the ventral side, and then trimmed as described below.\nThe entire vagina of each perfused animal was post-fixed in 10% neutral buffered formalin.\nThe degree of compactness of collagen fibers in the vagina was categorized as low, moderate and high (FIGS. 6A-6C, respectively), as observed in the area proximal to the epithelium. <<Low>> and <<moderate compactness>> were associated with the presence of coarse collagen fibers loosely or less loosely aggregated together, respectively, while <<high compactness>> was the term used to describe tightly packed fine collagen fibers, displaying a smooth, textured appearance. In all the animals, there were relatively few fibrocytes in proportion to the amount of collagen, and they appeared predominantly flattened and shrunken."}, "rat vagina [3]": {"tested_on": "rat vagina", "assay": "Vaginal weight after 36 weeks of treatment", "assay_type": "in vivo", "settings": "OVX rats, 36 wk, mean±SEM; OVX 101±5, intact 205±11", "from_the_text": "as §1, §5\nData are presented as means±SEM of 8-9 animals per group for vaginal weight or 5 animals per group for vaginal layer thickness determinations. Statistical significance was determined according to the multiple-range test of Duncan-Kramer (Kramer, 1956, Biometrics, 12: 307-310)."}, "[4]": {"assay": "DHEA blood levels after topical DHEA (Example 1)", "assay_type": "in vivo, rat", "settings": "DHEA 80 mg/kg topically on dorsal skin, rats", "from_the_text": "as §1"}, "rat vagina [5]": {"tested_on": "rat vagina", "settings": "ovariectomized rat, DHEA 30 mg twice daily on dorsal skin, one, three or six months; cited from earlier work"}, "rat vagina [6]": {"tested_on": "rat vagina", "assay": "Intravaginal DHEA suppository: vaginal epithelium morphology in OVX rats (Example 3)", "assay_type": "in vivo", "settings": "14 days", "from_the_text": "as §3, §4\nVagina—including the urethra—and uterus were collected, and then trimmed as described below. For further analysis, two pieces of inguinal mammary gland were sampled, as well as a square piece of about 2 X 2 cm of shaved dorsal skin, the latter being put and gently flattened on a piece of carton.\nAny other lipophilic base such as Fattibase, Wecobee, cocoa butter, theobroma oil or other combinations of Whitepsol bases could also be used. […] The proper amount of suppository base pellets to weight in order to obtain the final volume needed was calculated based on the previously measured density of the suppository base, which was 47.5 mg per 50 μl. The suppository base was put in a small beaker, melted in microwave at power 50% for about 3 min and 30 sec and then transferred on a heating plate, which was adjusted at the lowest power in order to keep the suppository base at a temperature of 50±3° C. […] These moulds were made from microcentrifuge tubes, each of them previously calibrated with 50 μl of water and cut at the level of the line drawn at the water surface. After 30 min of cooling at room temperature, the suppositories were put at 4° C. for another 30 min. Finally, the excess of base was trimmed with a razor blade and the suppositories were removed from their moulds and stored in closed glass bottles at 4° C. until use. They were allowed to reach room temperature before being applied to the animals.\nThe organs were immersed in 10% neutral buffered formalin immediately after resection. Each vagina and uterus was divided into 8 equal cross-segments and 4 cross-segments including two from the cervix and two from each of the two proximal and distal horns, respectively. The segments were then routinely processed and embedded all together in the same paraffin block.\nSegment 6 represented the deeper vaginal mucosa and is separated from the uterine cervix by only one segment."}}}
{"smiles": "C[C@]12CC[C@H](O)CC1=CC[C@@H]1[C@@H]2CC[C@]2(C)C(=O)CC[C@@H]12", "note": "[DHEA, dehydroepiandrosterone]", "values": [{"measurement": "ERα: labeling intensity", "setting": "ERα; epithelium", "result": "++"}, {"measurement": "ERα: semi-quantitative evaluation of labeled nuclei", "setting": "ERα; epithelium", "result": 2}, {"measurement": "ERα: labeling intensity", "setting": "ERα; lamina propria", "result": "+++"}, {"measurement": "ERα: semi-quantitative evaluation of labeled nuclei", "setting": "ERα; lamina propria", "result": 2}, {"measurement": "ERα: labeling intensity", "setting": "ERα; muscularis", "result": "+++"}, {"measurement": "ERα: semi-quantitative evaluation of labeled nuclei", "setting": "ERα; muscularis", "result": 3}, {"measurement": "body weight compared with placebo group", "setting": "[1]; DHEA 0.33 mg suppository intravaginal", "result": "slightly decreased"}, {"measurement": "body weight compared with placebo group", "setting": "[1]; DHEA 0.66 mg suppository intravaginal", "result": "slightly decreased"}, {"measurement": "decrease of body weight compared with placebo group", "setting": "[1]; DHEA 1 mg suppository intravaginal", "result": "more pronounced"}, {"measurement": "PR: semi-quantitative evaluation of labeled nuclei", "setting": "PR; epithelium", "result": 0}, {"measurement": "PR: semi-quantitative evaluation of labeled nuclei", "setting": "PR; lamina propria", "result": 0}, {"measurement": "PR: labeling intensity", "setting": "PR; muscularis", "result": "++"}, {"measurement": "PR: semi-quantitative evaluation of labeled nuclei", "setting": "PR; muscularis", "result": 1}, {"measurement": "reversal of the OVX-induced epithelial atrophy", "setting": "rat vagina [2]; at the doses used", "result": "partially reversed"}, {"measurement": "layers of mucous cells in the vaginal epithelium", "setting": "rat vagina [2]; segment 5", "result": "3-5 layers"}, {"measurement": "epithelium morphology", "setting": "rat vagina [2]; segment 1", "result": "KS-LHM"}, {"measurement": "epithelium morphology", "setting": "rat vagina [2]; segment 2", "result": "LHM"}, {"measurement": "epithelium morphology", "setting": "rat vagina [2]; segment 3", "result": "LHM"}, {"measurement": "epithelium morphology", "setting": "rat vagina [2]; segment 4", "result": "LHM"}, {"measurement": "epithelium morphology", "setting": "rat vagina [2]; segment 5", "result": "LHM"}, {"measurement": "epithelium morphology", "setting": "rat vagina [2]; segment 6", "result": "LHM-SCM"}, {"measurement": "epithelium morphology", "setting": "rat vagina [2]; segment 7", "result": "LHM-SCM"}, {"measurement": "vaginal weight", "setting": "rat vagina [3]", "result": "171 ± 12", "unit": "mg"}, {"measurement": "DHEA blood levels", "setting": "[4]", "result": "70 to 100", "unit": "nmol/L"}, {"measurement": "histopathologic examination of the vagina", "setting": "rat vagina [5]", "result": "reversal of vaginal mucosal atrophy"}, {"measurement": "vaginal epithelium thickness", "setting": "rat vagina [6]; DHEA 0.33 mg/suppository intravaginal, segment 6", "result": "2-5 cell layers"}, {"measurement": "animals displaying mild inflammation", "setting": "rat vagina [6]; DHEA 0.33 mg/suppository, unevenly distributed over the whole vagina", "result": "four"}, {"measurement": "animals displaying mild inflammation", "setting": "rat vagina [6]; DHEA 0.66 mg/suppository, three external segments", "result": "two"}, {"measurement": "animals displaying mild inflammation", "setting": "rat vagina [6]; DHEA 1.00 mg/suppository, four external segments", "result": "four"}]}
